# Measurements from patent publication US20140371171A1, “Aqueous Lock Composition Comprising Ethanol and a Polysaccharide Anticoagulant” (UNIVERSITE D'AUVERGNE CLERMONT I, priority 2012, published 2014).
# How the values were obtained:
# Assay type in all cases: physicochemical
# [1] = Ethanol concentration that does not cause the lock composition to precipitate, varying the heparin content; conditions: observed after 48 hours
# Procedure: The lock compositions tested were as follows: • composition comprising a mixture of the nadroparin calcium and ethanol • composition comprising a mixture of the tinzaparin sodium and ethanol, • composition comprising a mixture of the dalteparin sodium and ethanol, • composition comprising a mixture of the enoxaparin sodium and ethanol. […] The compositions were tested at ambient temperature and at 37° C. and the results were observed after 48 hours.
# [2] = Assay of enoxaparin by HPLC-ELSD in supernatant; conditions: enoxaparin sodium 400 IU/mL; ethanol 70% v/v
# Procedure: The assaying of enoxaparin was performed by a method of coupling high-performance liquid chromatography (HPLC) with an evaporative light scattering detector (ELSD) method. In order to be within the zone of linearity of the detector response, the samples were diluted to one tenth in the physiological serum solution. The analysis was carried out in the mixtures combining enoxaparin sodium 400 IU/mL with increasing concentrations of ethanol (30 to 70% (V/V)), in comparison with a calibration range of the enoxaparin composition (marketed under the trade name Lovenox®) prepared in the physiological serum solution at the following concentrations: 6 IU/mL, 12 IU/mL, 40 IU/mL, 80 IU/mL, 120 IU/mL.
# For the samples presenting a cloudiness effect, a preliminary centrifugation at 1,600 g for 5 minutes was carried out and only the supernatant was subsequently analysed.
# The operating conditions for the chromatographic separation were as follows: • analytical column measuring 150 mm in length and 4.6 mm in diameter, filled with a stationary phase of C18 5 μm. • separation of components in isocratic mode making use of a mixture of methanol/water, 50/50 (V/V) at a flow rate of 0.3 mL/min. • detection using an evaporative light scattering detector (ELSD): evaporation temperature of 40° C., gain of the detector=3 and pressure of nitrogen (nebulizer gas)=3.5 bar.
# [3] = Visual observation of precipitation in ethanol/enoxaparin sodium mixtures; conditions: enoxaparin sodium 400 IU/mL
# Procedure: Various mixtures of ethanol/enoxaparin sodium were prepared in 5 mL glass hemolysis tubes combining either: • a) a fixed concentration of enoxaparin sodium with 400 IU/mL (corresponding to the dose used in an antithrombotic preventive lock) in a range of increasing concentrations of ethanol (30%, 40%, 45%, 50%, 60% and 70% by volume (v/v)), the dilutions of ethanol having been made in physiological serum solution (NaCl in a concentration of 0.9 g/100 ml). • b) increasing concentrations of enoxaparin sodium (50, 100, 400, 500 and 1,000 IU/mL) in an ethanol solution of fixed concentration (40, 45 or 50% v/v). The visual observation of different ethanol/enoxaparin mixtures was carried out by way of an assessment of the presence (or absence) of precipitation at the time of effecting the contacting of the two solutions; the observed phenomena corresponding, either to the absence (level 0 noted −), or the presence of a precipitation. The extent of the precipitation was assessed, either based on the appearance of a cloudiness, or on the formation of a deposit in the form of droplets and the levels were evaluated by the scores: +, ++, +++. […] The observation was monitored over time, that is after 1 minute, 1 hour, 24 hours, 48 hours and 72 hours, of contact, and this was done at two temperatures, 20° C. and 37° C.
Substance,Ethanol content (% v/v) at 37° C. that does not cause precipitation ([1]; heparin content 10 IU/mL) [% v/v],Ethanol content (% v/v) at ambient temperature that does not cause precipitation ([1]; heparin content 10 IU/mL) [% v/v],Ethanol content (% v/v) at 37° C. that does not cause precipitation ([1]; heparin content 500 IU/mL) [% v/v],Ethanol content (% v/v) at ambient temperature that does not cause precipitation ([1]; heparin content 500 IU/mL) [% v/v],"Ethanol content (% v/v) at 37° C. that does not cause precipitation ([1]; heparin content 1,000 IU/mL) [% v/v]","Ethanol content (% v/v) at ambient temperature that does not cause precipitation ([1]; heparin content 1,000 IU/mL) [% v/v]",enoxaparin content levels found in the supernatant after centrifugation [2],visual appearance of the mixture (cloudiness) ([3]; ethanol 60 and 70% v/v),"visual appearance of the mixture (precipitation) ([3]; ethanol less than or equal to 40% v/v, up to 72 hours at 20° C. or 37° C.)"
tinzaparin sodium,44.0,42.1,41.0,34.3,38.0,26.3,,,
dalteparin sodium,47.8,44.6,41.9,35.7,35.9,26.7,,,
enoxaparin sodium,48.2,47.6,45.8,40.7,43.3,33.7,not detectable,the cloudiness increases progressively as the ethanol content increases,remains clear and colourless
nadroparin calcium,44.6,43.7,41.7,41.7,38.7,39.7,,,
